Laboratory results: patent publication US20140018426A1, “FOOD OR BEVERAGE COMPOSITION FORTIFIED WITH THYRONAMINES AND/OR THYRONAMINE PRECURSORS” (priority 2009, published 2014)
Values joined by “and” are separate entries in the source; they are usually repeats but may differ in a detail not shown here. Equal values may be shown once. Read-outs that look alike come from different tables or passages of the source.

Legend:
[1] = test system: vesicular monoamine transporter; conditions: cited from earlier work
[2] = test system: rat working heart preparation; conditions: cited from earlier work
mice [3] = conditions: single dose T1AM (normal 0.83); cited from earlier work
[4] = test system: Siberian hamsters (Phodopus sungorus); conditions: cited from earlier work
[5] = target: serotonin 5HT-2c receptor (Homo sapiens, UniProt P28335); conditions: cited from earlier work
Sequence of serotonin 5HT-2c receptor (P28335 33-458): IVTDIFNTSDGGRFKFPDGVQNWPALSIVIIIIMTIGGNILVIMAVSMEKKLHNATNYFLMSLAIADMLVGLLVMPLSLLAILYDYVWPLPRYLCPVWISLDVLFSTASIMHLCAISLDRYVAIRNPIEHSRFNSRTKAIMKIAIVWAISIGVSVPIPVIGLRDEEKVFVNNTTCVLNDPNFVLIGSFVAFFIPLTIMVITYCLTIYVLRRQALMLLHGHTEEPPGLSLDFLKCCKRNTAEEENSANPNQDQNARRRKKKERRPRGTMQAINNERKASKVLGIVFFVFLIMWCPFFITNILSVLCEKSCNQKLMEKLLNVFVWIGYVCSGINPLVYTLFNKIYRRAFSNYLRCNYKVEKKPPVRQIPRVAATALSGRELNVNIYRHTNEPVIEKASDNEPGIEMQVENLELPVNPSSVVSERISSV

mice [6] = conditions: cited from earlier work
[7] = target: norepenephrin transporter (Homo sapiens, UniProt P23975); conditions: cited from earlier work
Sequence of norepenephrin transporter (P23975 whole entry): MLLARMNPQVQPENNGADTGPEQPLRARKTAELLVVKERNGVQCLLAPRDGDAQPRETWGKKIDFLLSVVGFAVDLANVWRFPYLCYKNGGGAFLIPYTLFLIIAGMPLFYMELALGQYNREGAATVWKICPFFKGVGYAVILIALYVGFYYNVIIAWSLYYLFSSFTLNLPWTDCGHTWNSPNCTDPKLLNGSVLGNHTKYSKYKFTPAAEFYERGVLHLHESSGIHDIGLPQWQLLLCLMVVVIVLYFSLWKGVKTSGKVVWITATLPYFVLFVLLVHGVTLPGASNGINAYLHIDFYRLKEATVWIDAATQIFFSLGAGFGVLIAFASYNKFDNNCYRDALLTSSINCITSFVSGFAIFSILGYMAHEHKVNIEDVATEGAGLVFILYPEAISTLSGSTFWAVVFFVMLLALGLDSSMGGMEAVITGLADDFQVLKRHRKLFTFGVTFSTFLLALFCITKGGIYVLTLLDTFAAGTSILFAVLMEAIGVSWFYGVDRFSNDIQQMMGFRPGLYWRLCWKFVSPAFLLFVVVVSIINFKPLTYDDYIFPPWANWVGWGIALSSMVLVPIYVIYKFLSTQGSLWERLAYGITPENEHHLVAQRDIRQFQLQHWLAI

dopamine transporter = dopamine transporter (Homo sapiens, UniProt Q01959); conditions: cited from earlier work
Sequence of dopamine transporter (Q01959 whole entry): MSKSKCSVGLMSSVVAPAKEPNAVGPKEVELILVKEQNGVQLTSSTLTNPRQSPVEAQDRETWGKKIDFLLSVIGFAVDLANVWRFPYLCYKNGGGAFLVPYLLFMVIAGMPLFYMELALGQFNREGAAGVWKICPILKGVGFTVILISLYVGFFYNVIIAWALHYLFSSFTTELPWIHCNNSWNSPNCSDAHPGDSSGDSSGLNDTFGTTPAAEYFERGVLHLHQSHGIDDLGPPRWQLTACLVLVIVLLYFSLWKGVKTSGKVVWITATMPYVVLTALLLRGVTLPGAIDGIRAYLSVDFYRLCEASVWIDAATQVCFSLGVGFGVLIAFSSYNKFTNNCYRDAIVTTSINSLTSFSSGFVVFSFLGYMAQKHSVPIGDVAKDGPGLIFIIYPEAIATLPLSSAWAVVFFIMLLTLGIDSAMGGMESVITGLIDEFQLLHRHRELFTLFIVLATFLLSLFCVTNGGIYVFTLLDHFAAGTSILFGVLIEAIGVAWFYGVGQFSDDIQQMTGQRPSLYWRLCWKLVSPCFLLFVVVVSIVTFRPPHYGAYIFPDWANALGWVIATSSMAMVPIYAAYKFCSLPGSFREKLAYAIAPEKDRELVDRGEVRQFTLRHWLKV

[8] = test system: middle cerebral artery occlusion (MCAO) stroke model in mice; conditions: cited from earlier work
[9] = target: alpha-2A adrenergic receptor (Homo sapiens, UniProt P08913); conditions: cited from earlier work
Sequence of alpha-2A adrenergic receptor (P08913 whole entry): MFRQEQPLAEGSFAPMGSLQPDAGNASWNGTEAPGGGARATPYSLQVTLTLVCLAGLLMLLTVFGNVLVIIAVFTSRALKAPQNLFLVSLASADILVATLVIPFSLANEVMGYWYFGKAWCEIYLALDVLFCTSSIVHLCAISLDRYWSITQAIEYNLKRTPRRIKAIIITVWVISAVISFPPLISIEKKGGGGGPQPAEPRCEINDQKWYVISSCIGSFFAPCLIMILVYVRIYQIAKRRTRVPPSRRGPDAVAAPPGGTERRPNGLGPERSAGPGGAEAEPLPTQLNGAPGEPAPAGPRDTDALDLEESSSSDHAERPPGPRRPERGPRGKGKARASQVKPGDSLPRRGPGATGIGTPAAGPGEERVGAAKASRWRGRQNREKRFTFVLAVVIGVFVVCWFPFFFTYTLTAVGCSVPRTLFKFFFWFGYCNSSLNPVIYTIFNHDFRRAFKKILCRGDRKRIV

mice [10] = conditions: cited from earlier work; remark: listed apart in the source
serotonin transporter = serotonin transporter (Homo sapiens, UniProt P31645); conditions: cited from earlier work
Sequence of serotonin transporter (P31645 whole entry): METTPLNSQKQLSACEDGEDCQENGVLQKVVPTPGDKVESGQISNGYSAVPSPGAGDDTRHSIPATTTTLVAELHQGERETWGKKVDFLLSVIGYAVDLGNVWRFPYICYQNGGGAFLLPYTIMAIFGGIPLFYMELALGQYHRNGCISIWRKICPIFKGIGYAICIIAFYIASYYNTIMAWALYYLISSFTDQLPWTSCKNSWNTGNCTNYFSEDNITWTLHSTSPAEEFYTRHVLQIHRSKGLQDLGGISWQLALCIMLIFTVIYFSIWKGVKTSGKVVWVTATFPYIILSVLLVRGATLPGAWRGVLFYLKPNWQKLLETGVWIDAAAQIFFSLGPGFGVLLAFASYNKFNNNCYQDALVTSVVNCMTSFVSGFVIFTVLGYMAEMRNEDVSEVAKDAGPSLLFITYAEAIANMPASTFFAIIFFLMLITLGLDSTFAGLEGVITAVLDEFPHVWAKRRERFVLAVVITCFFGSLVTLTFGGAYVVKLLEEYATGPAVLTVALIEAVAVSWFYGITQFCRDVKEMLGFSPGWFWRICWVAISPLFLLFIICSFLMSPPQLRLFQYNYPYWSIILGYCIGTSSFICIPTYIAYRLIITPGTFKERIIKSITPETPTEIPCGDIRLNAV

[11] = target: trace amine-associated receptor 1 (TAAR1) (Homo sapiens, UniProt Q96RJ0); conditions: cited from earlier work
Sequence of trace amine-associated receptor 1 (TAAR1) (Q96RJ0 whole entry, species assumed): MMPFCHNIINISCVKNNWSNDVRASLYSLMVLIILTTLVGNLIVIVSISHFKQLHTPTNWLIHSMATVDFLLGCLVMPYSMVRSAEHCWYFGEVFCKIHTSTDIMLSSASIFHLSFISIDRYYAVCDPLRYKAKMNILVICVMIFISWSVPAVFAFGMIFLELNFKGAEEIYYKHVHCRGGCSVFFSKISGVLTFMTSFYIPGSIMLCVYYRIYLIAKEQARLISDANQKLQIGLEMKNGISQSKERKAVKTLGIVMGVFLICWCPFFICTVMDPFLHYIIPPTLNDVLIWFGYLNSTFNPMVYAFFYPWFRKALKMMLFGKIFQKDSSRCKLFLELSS

LDLr+/− [12] = assay: Blood Sugar (serum glucose), LDLr+/− mice on Western Diet, daily oral T2; assay type: in vivo; conditions: for Blood Sugar, individual animal: LDLr+/− mice, Western Diet
Excerpt: (§1) Mice in the study were fed a standard lab chow referred to as the “Western Diet.” The overall level of fat and the saturated nature of the fat are representative diets typical in the industrialized west that are linked to risk of cardiovascular disease in humans. The formula is used primarily with genetically manipulated rodent models that are susceptible to high cholesterol and cardiovascular disease. The diet may also be useful in diet-induced obesity, diabetes, and metabolic syndrome models. High cholesterol, obesity, and diabetes are each associated increased risk for cardiovascular disease. The composition of the Western Diet is shown below in Table 1.
(§2) C57 is a wild-type strain, LDLr+/− are a strain carrying one functional copy of the LDLr gene, and the LDLrO animals are total LDLr knockouts. The LDLr gene encodes for the LDL receptor protein, which is responsible for scavenging LDL with bound cholesterol from the blood and transporting it into cells. Both heterozygous and homozygous LDLr knockout animals develop very high serum cholesterol levels and are considered to be a good model for heterozygous and homozygous familial hypercholesterolemia in humans.
(§3) LDLr knockout animals have zero LDL receptor function. […] This effect was independent of weight loss.

rats = conditions: 250 mcg/kg p.o. q.d. for 30 days, compared to controls; cited from earlier work
[13] = test system: thyroid receptor homodimer; conditions: in contrast to T3; cited from earlier work
LDLr0 [14] = assay: Blood Sugar (serum glucose), LDLr knockout mice on Western Diet, daily oral T2; assay type: in vivo; conditions: for Blood Sugar, individual animal: LDLr0 mice, Western Diet
Excerpt: as §1, §2, §3

[15] = Body weight, LDLr+/− mice on Western Diet, daily oral T2; assay type: in vivo; set-up: Body weight, Ave: unit not given here
Excerpt: as §1, §2, §3

C57 [16] = assay: Serum triglycerides, C57 mice on Western Diet, daily oral T2; assay type: in vivo; conditions: C57, low and high dose T2
Excerpt: as §1, §2, §3

[17] = Body weight, C57 mice on Western Diet, daily oral T2; assay type: in vivo
Excerpt: as §1, §2, §3

LDLr+/− [18] = assay: Serum triglycerides, LDLr+/− mice on Western Diet, daily oral T2; assay type: in vivo; conditions: low and high dose T2
Excerpt: as §1, §2, §3

TR β gene expression = conditions: cited from earlier work
C57 [19] = assay: Blood Sugar (serum glucose), C57 mice on Western Diet, daily oral T2; assay type: in vivo; conditions: for Blood Sugar, individual animal: C57 mice, Western Diet
Excerpt: as §1, §2, §3

[20] = test system: growth hormone gene expression; conditions: cited from earlier work
LDLr0 [21] = assay: Serum triglycerides, LDLr knockout mice on Western Diet, daily oral T2; assay type: in vivo; conditions: low and high dose T2
Excerpt: as §1, §2, §3

[22] = Body weight, LDLr knockout mice on Western Diet, daily oral T2; assay type: in vivo
Excerpt: as §1, §2, §3

[23] = test system: hypercholesterolemic patients; conditions: cited from earlier work; for decrease in body weight: 300 mg daily for 8 months
TR α1, β1 and β2 = conditions: in vitro studies; cited from earlier work

NCCc1ccc(Oc2ccc(O)cc2)c(I)c1 [T1AM, 3-iodothyronamine]
vesicular monoamine transporter function [1]: binds and inhibits
heart rate and systolic aortic pressure ([2]; rat working heart at 37° C., compound in perfusion buffer): large and immediate decreases
respiratory quotient (RQ) value (mice [3]): approximately 0.7
respiratory quotient (RQ) value ([4]; Siberian hamsters, single dose T1AM (normal 0.90)): approximately 0.7
time of urine ketone content peak post-injection ([4]; Siberian hamsters): 16 h
time to complete RQ shift post-injection ([4]; in vivo): about 4.5 hours
persistence of 0.7 RQ after the T1AM injection ([4]; summer acclimatized Siberian hamsters): at least 24 h
serotonin 5HT-2c receptor activity [5]: agonist
time for body temperature to return to normal (mice [6]; mice, depending on the T1AM dose): 4 to 6 h
drop in body temperature (mice [6]; mice, injection): about 10 °C
time of body temperature nadir after injection (mice [6]; mice): about 1 hour
norepenephrin transporter function [7]: binds and inhibits
dopamine transporter function (dopamine transporter): binds and inhibits
reduction of infarct volume [8]: 40%
alpha-2A adrenergic receptor activity [9]: agonist
time for blood glucose to return to baseline (mice [10]): 3 to 4 h
time of blood glucose peak after the injection (mice [10]): 1 h
increased blood glucose (mice [10]; injection, at peak): 2-5 fold
serotonin transporter function (serotonin transporter): binds and inhibits
TAAR1 activity [11]: potent agonist

N[C@@H](Cc1cc(I)c(Oc2ccc(O)cc2)c(I)c1)C(=O)O [T2, (2S)-2-amino-3-[4-(4-hydroxyphenoxy)-3,5-diiodophenyl]propanoic acid]
Blood Sugar, individual animal (LDLr+/− [12]; 1 Week High Dose T2): 99 and 94 and 80
Blood Sugar, individual animal (LDLr+/− [12]; 1 Week Low Dose T2): 210
lower blood sugar levels, average (LDLr+/− [12]; all genetic groups (LDLr+/−), high doses of T2, vs controls): 45-50%
decrease body weight (rats): 13%
decrease hepatic fat mass (rats): 50%
increase hepatic fat oxidation (rats): 42%
lower cholesterol (rats): 18%
lower serum triglycerides (rats): 52%
effect on thyroid receptor homodimer formation [13]: no effect
Blood Sugar, individual animal (LDLr0 [14]; 1 Week High Dose T2): 87
Blood Sugar, individual animal (LDLr0 [14]; 1 Week Low Dose T2): 54 and 79
lower blood sugar levels, average (LDLr0 [14]; all genetic groups (LDLr knockout), high doses of T2, vs controls): 45-50%
Body weight ([15]; High Dose T2, Day 1, individual animal, in g (unit assumed)): 31.4
Body weight ([15]; High Dose T2, Day 2, individual animal, in g (unit assumed)): 31.0 and 29.1 and 29.9
Body weight ([15]; High Dose T2, Day 4, individual animal, in g (unit assumed)): 29.0 and 27.9
Body weight, Ave ([15]; Low Dose T2, Day 2, group average): 28.1
Body weight ([15]; Low Dose T2, Day 2, individual animal): 282
Body weight ([15]; Low Dose T2, Day 3, individual animal): 29.7 and 31.4
Body weight ([15]; Low Dose T2, Day 4, individual animal): 27.4
Body weight ([15]; Low Dose T2, Day 5, individual animal): 29.5
Body weight ([15]; Low Dose T2, Day 6, individual animal): 29.1
Body weight ([15]; Low Dose T2, Day 7, individual animal): 31.0 and 29.6 (2×) and 28.2
effect on weight gain ([15]; low and high dose T2): did not affect
effect on serum triglyceride levels (C57 [16]): did not affect
Body weight, Ave ([17]; C57, High Dose T2, Day 1, group average): 28.1 g
Body weight ([17]; C57, High Dose T2, Day 1, individual animal): 29.6 (2×) and 24.9 and 26.7
Body weight ([17]; C57, High Dose T2, Day 2, individual animal, in g (unit assumed)): 29.5 and 25.8 and 29.7
Body weight ([17]; C57, High Dose T2, Day 3, individual animal, in g (unit assumed)): 25.1 and 29.9 and 27.2
Body weight ([17]; C57, High Dose T2, Day 4, individual animal, in g (unit assumed)): 29.1 and 28.7
Body weight ([17]; C57, High Dose T2, Day 5, individual animal, in g (unit assumed)): 29.1 and 28.5
Body weight ([17]; C57, Low Dose T2, Day 2, individual animal): 24.9
Body weight ([17]; C57, Low Dose T2, Day 4, individual animal): 25.1
Body weight ([17]; C57, Low Dose T2, Day 6, individual animal): 29.9 and 24.8 and 28.7
effect on weight gain ([17]; C57, low and high dose T2): did not affect
effect on serum triglyceride levels (LDLr+/− [18]): did not affect
less potent than T3 in decreasing TR β gene expression (TR β gene expression): 50%
Blood Sugar, individual animal (C57 [19]; 1 Week High Dose T2): 74 and 120 and 92
Blood Sugar, individual animal (C57 [19]; 1 Week Low Dose T2): 190 and 120
lower blood sugar levels, average (C57 [19]; all genetic groups (C57), high doses of T2, vs controls): 45-50%
potency relative to T3 in increasing growth hormone gene expression [20]: 1/100
effect on serum triglyceride levels (LDLr0 [21]): did not affect
Body weight ([22]; LDLr0, High Dose T2, Day 1, individual animal, in g (unit assumed)): 27.4
Body weight ([22]; LDLr0, High Dose T2, Day 2, individual animal, in g (unit assumed)): 23.1 and 24.8
Body weight ([22]; LDLr0, High Dose T2, Day 3, individual animal, in g (unit assumed)): 22.8
Body weight ([22]; LDLr0, High Dose T2, Day 4, individual animal, in g (unit assumed)): 24.8
Body weight ([22]; LDLr0, High Dose T2, Day 5, individual animal, in g (unit assumed)): 23.1
Body weight ([22]; LDLr0, Low Dose T2, Day 6, individual animal): 23.1
effect on weight gain ([22]; LDLr knockout, low and high dose T2): did not affect

N[C@H](Cc1cc(I)c(Oc2ccc(O)cc2)c(I)c1)C(=O)O [3,5-D-T2]
patients with coronary artery disease with increased anginal symptoms ([23]; 300 mg daily): 7 of 13
total serum cholesterol decrease ([23]; at 20 weeks, 300 mg daily): 20%
decrease in body weight ([23]; euthyroid subjects): 5%
effect of doses of less than 250 mg/day ([23]; human, in vivo): ineffective
decrease in body weight ([23]; hypothyroid patients): 8%
mean heart rate on treatment ([23]; increase from 76, 300 mg daily): 88 beats per minute

N[C@@H](Cc1cc(I)c(Oc2ccc(O)c(I)c2)c(I)c1)C(=O)O [T3, (2S)-2-amino-3-[4-(4-hydroxy-3-iodophenoxy)-3,5-diiodophenyl]propanoic acid]
affinity for TR α1, β1 and β2, fold greater than that of T2 (TR α1, β1 and β2): 40-500 fold

NCCc1ccc(Oc2ccc(O)cc2)cc1 [T0AM, thyronamine]
potency as compared to T1AM (fold less potent) ([2]; rat working heart preparation): about 10 fold
potency on body temperature compared with T1AM (mice [6]; similar results reported as for T1AM): less potent
